Reference: article PMC11862990, “Utility of 6-aza-2-thiothymine in the synthesis of novel [1,2,4]triazolo[4,3-b][1,2,4]triazin-7-one derivatives: synthesis, structure elucidation, molecular docking and in vitro anti-lung cancer activity” (RSC Advances, 2025)
“And” between values parts separate entries of the source, which are not always exact repeats. Equal values may be shown once. Read-outs that look alike come from different tables or passages of the source.

Tested on: BJ1 (normal skin fibroblast)
Procedure: Using specific human cancer cell lines, the anti-proliferative effectiveness of compounds 7a–j was evaluated in an in vitro assay. The anti-cancer activity of these compounds (7a–j) on various cancer cell lines, including PC3 (Prostate cell line), A549 (Lung carcinoma), PACA2 (Pancreatic cancer cell line) and BJ1 (normal skin fibroblast), was investigated in this study using the 3-(4,5-dimethylthiazol-2-yl)-2,5-diphenyltetrazolium bromide (MTT) test.
In the initial screening trial, a single dosage concentration of 100 μg ml^−1 was applied for 48 hours. The cytotoxicity of the treated cells was determined by calculating the cell death percentage (% mortality) as a percentage of untreated cells (Table 2).
Cell viability was tested using the MTT assay, 3-(4,5-dimethylthiazol-2-yl)-2,5-diphenyl-tetrazolium bromide (Bio Basic Canada Inc. Toronto, Canada).[26] Under class II biosafety regulations, the procedures were carried out in a sterile laminar air flow cabinet (Baker, SG403INT; Sanford, ME, USA). Cell lines were obtained from the American type culture collection (ATCC) as a gift from Dr Stig Linder, Karonisca Institute, Sweden. All incubations were performed at 37 °C in a 5% CO2 incubator with a 95% humidified environment (Sheldon, TC2323; Cornelius, OR, USA). 96-well micro titer polypropylene plates were seeded with cells at a density of 10^4 cells per well in complete DMEM media, and the cells were allowed to adhere for 24 hours. After the media was aspirated, the tested compounds were added to the cells in a single dose of 100 μg ml^−1 in DMSO. Each well received 40 μl of MTT salt ([…]) following a 48 hour incubation period. 200 μl of 10% sodium dodecyl sulfate (SDS) was added to each well after the reaction ended, and any formazan crystals that could have been produced were dissolved by two hours of incubator heating to 37 °C. The amount of formazan product was measured at 595 nm using a microplate reader (Bio-Rad Laboratories, model 3350, California, USA) with a reference wavelength of 690 nm, serving as a backdrop. Rather than the drugs under investigation, the medium was applied to the untreated cells (negative control). The examined compounds were dissolved in dimethylsulfoxide (DMSO), and the final concentration in the cells was less than 0.2%. For each compound and the control, the solvent concentration was the same.

`COc1ccc(-c2nn(-c3ccccc3)c3nc(=O)c(C)nn23)cc1` [Compound 7g, 3-(4-Methoxyphenyl)-6-methyl-1-phenyl-[1,2,4]triazolo[4,3-b][1,2,4]triazin-7(1H)-one] was tested, and the “(%) Mortality BJ1 (cytotoxicity percentage on normal cells)” value (100 μg ml^−1, 48 hours, MTT) was 2.8% and 2.8 ± 0.71%.

With `COc1cccc2c1C(=O)c1c(O)c3c(c(O)c1C2=O)C[C@@](O)(C(=O)CO)C[C@@H]3O[C@H]1C[C@H](N)[C@H](O)[C@H](C)O1` [Dox, Doxorubicin, reference compound] the “(%) Mortality BJ1 (cytotoxicity percentage on normal cells)” value (human, 48 h, 100 μg ml^−1) was 1.10 ± 0.52%.

With `Cc1nn2c(C)nn(-c3ccc([N+](=O)[O-])cc3)c2nc1=O` [Compound 7a, 3,6-Dimethyl-1-(4-nitrophenyl)-[1,2,4]triazolo[4,3-b][1,2,4]triazin-7(1H)-one] the “(%) Mortality BJ1 (cytotoxicity percentage on normal cells)” value (100 μg ml^−1, 48 hours, MTT) was 3.5% and 3.5 ± 1.16%.
